Source: patent publication US8329645B2, “Polymyxin derivatives and uses thereof” (priority 2008, dated 2012)

What was measured:
[1] = test system: E. coli IH3080; assay: Growth inhibition around wells on LB agar plates; assay type: cell-based, Escherichia coli
Experimental: Peptides synthesized in Example 1, all carrying at least two (2) but not more than three (3) positive charges, were studied for their ability to inhibit the growth of E. coli. This was tested employing LB agar (LB Agar Lennox, Difco, BD, Sparks, Md., U.S.A) plates. The indicator organism E. coli IH3080 (K1:O018) was an encapsulated strain originally isolated from a neonate suffering from meningitis (Vaara et al. 1984) and obtained from National Public Health Institute, Helsinki, Finland.
(§1) From an overnight-grown culture of IH3080 on LB agar, a suspension of approx. 10^8 cells/ml was prepared in 0.9% NaCl. Aliquots of this suspension were then pipetted on the agar plates and the plates were gently shaken to spread the suspension evenly on the entire surface of the plate. Thereafter, the unabsorbed part of the suspension was removed by using a Pasteur pipette. After the surface had dried, small wells (diameter, 2 mm) were drilled on the plates (five wells per plate) by using a sterile sharp-edged narrow metal tube, single-use pipette tip, and vacuum suction. An alternative method used a swab to spread the inoculum. […] Controls included 0.9% NaCl solution without the compound to be tested. The plates were then incubated for 18 h at 37° C. whereafter the diameters of growth inhibition zones around each well were measured; the diameter of the well itself was not reduced. Finally, the diameters were converted to surface areas of growth inhibition (in square mm).

[2] = test system: Acinetobacter baumannii ATCC 19606; assay: Growth inhibition around wells on LB agar plates; assay type: cell-based; conditions: A. baumannii ATCC 19606
Experimental: as §1
(§2) Direct antibacterial activity of sixteen NAB compounds against Acinetobacter baumannii ATCC 19606 and Pseudomonas aeruginosa ATCC 27853 was tested by using the susceptibility determination method described in Example 2. Five compounds (NAB7062, NAB734, NAB737, NAB739, and NAB740) had very notable activity against A. baumannii. […] The antibacterial activity of NAB739 and NAB740 were as strong as or even stronger than that of polymyxin B.

[3] = test system: Pseudomonas aeruginosa ATCC 27853; assay: Growth inhibition around wells on LB agar plates; assay type: cell-based; conditions: Ps. aeruginosa ATCC 27853
Experimental: (§3) From an overnight-grown culture of IH3080 on LB agar, a suspension of approx. 10^8 cells/ml was prepared in 0.9% NaCl. Aliquots of this suspension were then pipetted on the agar plates and the plates were gently shaken to spread the suspension evenly on the entire surface of the plate. Thereafter, the unabsorbed part of the suspension was removed by using a Pasteur pipette. After the surface had dried, small wells (diameter, 2 mm) were drilled on the plates (five wells per plate) by using a sterile sharp-edged narrow metal tube, single-use pipette tip, and vacuum suction. An alternative method used a swab to spread the inoculum. Samples (4 μl and 10 μl) of the peptide solution in 0.9% NaCl (at concentrations of 1 μg/ml and 0.1 μg/ml) were then pipetted to the wells and the sample fluids were allowed to absorb. Controls included 0.9% NaCl solution without the compound to be tested. The plates were then incubated for 18 h at 37° C. whereafter the diameters of growth inhibition zones around each well were measured; the diameter of the well itself was not reduced. Finally, the diameters were converted to surface areas of growth inhibition (in square mm).
as §2

[4] = test system: E. coli IH3080; assay: Sensitization to rifampin: growth inhibition around wells on LB plates containing rifampin; assay type: cell-based, Escherichia coli
Experimental: as §3

[5] = test system: A. baumannii ATCC 19606; assay: as above; assay type: cell-based, Acinetobacter baumannii; conditions: 4 μg
[6] = test system: Ps. aeruginosa ATCC 27853; assay: as above; assay type: cell-based, Pseudomonas aeruginosa; conditions: 4 μg
[7] = 4 μg of compound, rifampin 0 μg/ml
[8] = 4 μg of compound, rifampin 0.1 μg/ml
[9] = 4 μg of compound, rifampin 1.0 μg/ml

| Substance | growth inhibition around a well ([1]; 4 μg of compound per well) [square millimeters] | growth inhibition around a well ([1]; 10 μg of compound per well) [square millimeters] | growth inhibition around a well ([2]; 4 μg) [square millimeters] | growth inhibition around a well ([2]; 10 μg) [square millimeters] | growth inhibition around a well ([3]; 4 μg) [square millimeters] | growth inhibition around a well ([3]; 10 μg) [square millimeters] | growth inhibition around a well in the presence of rifampin [4, 7] [square millimeters] | growth inhibition around a well in the presence of rifampin [4, 8] [square millimeters] | growth inhibition around a well in the presence of rifampin [4, 9] [square millimeters] | growth inhibition around a well in the presence of rifampin ([5]; rifampin 0 μg/ml) [square millimeters] | growth inhibition around a well in the presence of rifampin ([5]; rifampin 0.1 μg/ml) [square millimeters] | growth inhibition around a well in the presence of rifampin ([5]; rifampin 0.3 μg/ml) [square millimeters] | growth inhibition around a well in the presence of rifampin ([6]; rifampin 0 μg/ml) [square millimeters] | growth inhibition around a well in the presence of rifampin ([6]; rifampin 0.1 μg/ml) [square millimeters] | growth inhibition around a well in the presence of rifampin ([6]; rifampin 0.3 μg/ml) [square millimeters] | growth inhibition around a well in the presence of rifampin ([4]; 10 μg of compound, rifampin 1.0 μg/ml) [square millimeters] |
| --- | --- | --- | --- | --- | --- | --- | --- | --- | --- | --- | --- | --- | --- | --- | --- | --- |
| OA-Thr-Abu-cy[Dab-Dab-DPhe-Leu-Dab-Dab-Leu-] [NAB 719] | 7 | 50 | 0 | 0 | 0 | 0 | 7 | 79 | 95 | 0 | 154 | 133 | 0 | 0 | 7 |  |
| Deacylcolistin [reference compound] |  | 95 |  |  |  |  | 79 | 87 | 127 |  |  |  |  |  |  |  |
| OA-Thr-Abu-cy[Dab-Lys-DPhe-Leu-Dab-Dab-Thr-] [NAB 731] | 0 | 0 |  |  |  |  | 0 | 0 | 5 |  |  |  |  |  |  | 22 |
| OA-Thr-Dab-cy[Dab-Abu-DPhe-Leu-Dab-Dab-Thr-] [NAB 715] | 0 | 0 |  |  |  |  | 0 | 0 | 33 |  |  |  |  |  |  |  |
| OA-DAla-DAla-cy[Dab-Dab-DPhe-Leu-Dab-Dab-Thr-] [NAB 733] | 0 | 0 |  |  |  |  | 0 | 95 | 113 |  |  |  |  |  |  |  |
| Polymyxin B heptapeptide [reference compound] | 0 | 0 |  |  |  |  | 0 | 0 | 38 |  |  |  |  |  |  |  |
| MHA-Thr-Abu-cy[Dab-Dab-DPhe-Leu-Dab-Dab-Thr-] [NAB 706] | 5 | 7 |  |  |  |  | 5 | 79 | 133 |  |  |  |  |  |  |  |
| OA-Thr-Abu-cy[Dab-Abu-DPhe-Leu-Dab-Dab-Thr-] [NAB 710] | 0 | 7 |  |  |  |  | 0 | 7 | 13 |  |  |  |  |  |  |  |
| OA-Abu-cy[Dab-Dab-DPhe-Leu-Dab-Dab-Thr-] [NAB 713] | 0 | 0 |  |  |  |  | 0 | 20 | 38 |  |  |  |  |  |  |  |
| MHA-Dab-Thr-Dab-cy[Dab-Dab-DPhe-Leu-Abu-Abu-Thr-] [NAB 721] | 0 | 0 |  |  |  |  | 0 | 13 | 28 |  |  |  |  |  |  |  |
| Deacylpolymyxin B [reference compound] |  | 113 |  |  |  |  | 57 | 79 | 127 |  |  |  |  |  |  |  |
| OA-Thr-Abu-cy[Dab-Dab-DPhe-Leu-Dab-Abu-Thr-] [NAB 709] | 0 | 0 |  |  |  |  | 0 | 0 | 13 |  |  |  |  |  |  |  |
| OA-Thr-DThr-cy[Dab-Dab-DPhe-Thr-Dab-Dab-Thr-] [NAB 737] |  |  | 38 | 79 | 0 | 28 | 133 | 177 | 201 | 38 | 201 | 283 | 0 |  | 20 |  |
| MHA-Abu-Thr-Abu-cy[Dab-Dab-DPhe-Leu-Dab-Dab-Thr-] [NAB 707] | 5 | 7 |  |  |  |  | 5 | 87 | 113 |  |  |  |  |  |  |  |
